This passage reports IC50 results from patent US12209087B2, “AKT1 modulators” (Alterome Therapeutics, Inc., priority 2022, dated 2025).

Some results are limits rather than exact numbers.

The target in one experiment is T1, full length AKT E17K (Homo sapiens, UniProt P31749, E17K).
T1 construct: host or cells: HEK-293 (ATCC CRL-1573)
T1 sequence (P31749 whole entry E17K): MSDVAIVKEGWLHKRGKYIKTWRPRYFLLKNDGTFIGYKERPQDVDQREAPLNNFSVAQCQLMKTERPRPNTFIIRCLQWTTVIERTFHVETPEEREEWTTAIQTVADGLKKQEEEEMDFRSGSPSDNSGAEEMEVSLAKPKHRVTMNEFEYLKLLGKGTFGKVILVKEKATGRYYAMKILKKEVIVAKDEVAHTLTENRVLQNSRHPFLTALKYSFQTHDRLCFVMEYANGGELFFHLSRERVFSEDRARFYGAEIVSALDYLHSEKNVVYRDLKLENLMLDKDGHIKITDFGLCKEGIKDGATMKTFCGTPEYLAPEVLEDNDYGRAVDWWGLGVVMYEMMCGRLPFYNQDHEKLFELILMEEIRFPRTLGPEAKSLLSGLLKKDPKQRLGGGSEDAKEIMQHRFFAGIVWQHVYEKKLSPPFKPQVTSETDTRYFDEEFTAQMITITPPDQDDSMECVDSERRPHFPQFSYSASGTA
The experiment is described as follows: NanoBRET Target Engagement (TE) Assay. The following applies: competitive displacement of tracer in cells, read-out: AKT1 E17K IC50. The class given is cell-based. The source says:
The NanoBRET™ Target Engagement (TE) Intracellular Kinase Assays are based on the NanoBRET™ System (Promega Corporation), an energy transfer technique designed to measure molecular proximity in living cells. The NanoBRET™ TE Assays measure the apparent affinity of test compounds by competitive displacement of the NanoBRET™ tracer compound, which is a cell permeable molecule engineered to be reversibly bound to a NanoLuc® luciferase-kinase fusion expressed in cells. For compound screening, when a test compound binds to the selected kinase, the BRET signal is attenuated. […] All cells were evaluated for viability prior to transfection and optimization of the transfection was done prior to experimentation. […] Following transfection, cells were washed and resuspended in Opti-MEM. NanoBRET assays were performed in white, 384-well plates (Corning) at a density of […]. All example compounds were prepared as concentrated stock solutions in DMSO (Sigma-Aldrich). Compounds are dissolved in DMSO to make 10 mM stock solution. […] A Labcyte ECHO 550 compound dispenser was used to facilitate compound transfer directly to cells. Cells were equilibrated for 2 hr with energy transfer probes and example compound prior to BRET measurements. […] For target engagement analysis, the energy transfer probes were added to the cells at concentrations optimized for the target in question (AKT E17K). Following compound incubation, NanoBRET NanoGlo Substrate (Promega Cat #N157D) and Extracellular Nanoluc Inhibitor (Promega Cat #N235C) was added according to the manufacturer's recommended protocol, and luminescence was measured on Envision Reader (Perkin Elmer) Multimode Luminometer equipped with 450 nm BPfilter (donor) and 600 nm LPfilter (acceptor), using 0.5 s integration time. Milli-BRET units (mBU) are calculated by multiplying the raw BRET values by 1000. Apparent tracer affinity values (EC50) were determined using the sigmoidal dose-response (variable slope).
Competitive displacement data were then plotted and data were fit to determine the EC50 value for each example compound.
On the technique in general: Bioluminescence resonance energy transfer reports proximity on the nanometre scale.
With `COc1ccccc1-c1ccc2nc(-c3cccnc3N)n(-c3ccc(CN4CCC(Nc5ccnc(C#N)n5)CC4)cc3)c2n1` [Example 422, 4-((1-(4-(2-(2-Aminopyridin-3-yl)-5-(2-methoxyphenyl)-3H-imidazo[4,5-b]pyridin-3-yl)benzyl)piperidin-4-yl)amino)pyrimidine-2-carbonitrile], the IC50 was less than 0.015 µM.

As for `N#Cc1nccc(N2CCN(Cc3ccc(-n4c(-c5cccnc5N)nc5ccc(C6=CCCCC6)nc54)cc3)CC2)n1` [Example 329, 4-(4-(4-(2-(2-Aminopyridin-3-yl)-5-(cyclohex-1-en-1-yl)-3H-imidazo[4,5-b]pyridin-3-yl)benzyl)piperazin-1-yl)pyrimidine-2-carbonitrile], the IC50 fell in the range of 0.015 to 0.06 µM.

Consider `Cc1cc(F)ccc1-c1ccc2nc(-c3cccnc3N)n(-c3ccc(CN4CCC(Nc5ccnc(C#N)n5)CC4)cc3)c2n1` [Example 523, 4-((1-(4-(2-(2-Aminopyridin-3-yl)-5-(4-fluoro-2-methylphenyl)-3H-imidazo[4,5-b]pyridin-3-yl)benzyl)piperidin-4-yl)amino)pyrimidine-2-carbonitrile], for which the IC50 lay in the range of 0.015 to 0.06 µM.

Consider `Cn1ccc(-c2ccc3nc(-c4cccnc4N)n(-c4ccc(CN5CCC(Nc6ccnc(C#N)n6)CC5)cc4)c3n2)cc1=O` [Example 359, 4-((1-(4-(2-(2-aminopyridin-3-yl)-5-(1-methyl-2-oxo-1,2-dihydropyridin-4-yl)-3H-imidazo[4,5-b]pyridin-3-yl)benzyl)piperidin-4-yl)amino)pyrimidine-2-carbonitrile], for which the IC50 was less than 0.015 µM.

Take `Cc1ncn(-c2ccc3nc(-c4cccnc4N)n(-c4ccc(CN5CCC(Nc6ccnc(C#N)n6)CC5)cc4)c3n2)n1` [Example 589, 4-((1-(4-(2-(2-aminopyridin-3-yl)-5-(3-methyl-1H-1,2,4-triazol-1-yl)-3H-imidazo[4,5-b]pyridin-3-yl)benzyl)piperidin-4-yl)amino)pyrimidine-2-carbonitrile]: the IC50 lay in the range of 0.015 to 0.06 µM.

For `N#Cc1ncnc(N2CCC3(CCN(Cc4ccc(-n5c(-c6cccnc6N)nc6ccc(-c7ccccc7)nc65)cc4)CC3)CC2)n1` [Example 365, 4-(9-(4-(2-(2-Aminopyridin-3-yl)-5-phenyl-3H-imidazo[4,5-b]pyridin-3-yl)benzyl)-3,9-diazaspiro[5.5]undecan-3-yl)-1,3,5-triazine-2-carbonitrile], the IC50 fell in the range of 0.015 to 0.06 µM.

With `COc1ncccc1-c1ccc2nc(-c3cccnc3N)n(-c3ccc(CN4CCC(Nc5ccnc(C#N)n5)CC4)cc3)c2n1` [Example 537, 4-((1-(4-(2-(2-Aminopyridin-3-yl)-5-(2-methoxypyridin-3-yl)-3H-imidazo[4,5-b]pyridin-3-yl)benzyl)piperidin-4-yl)amino)pyrimidine-2-carbonitrile], the IC50 was less than 0.015 µM.

Take `N#Cc1nccc(NC2CCN(Cc3ccc(-n4c(-c5cccnc5N)nc5ccc(-c6ccc(C7CC7)nc6)nc54)cc3)CC2)n1` [Example 587, 4-((1-(4-(2-(2-Aminopyridin-3-yl)-5-(6-cyclopropylpyridin-3-yl)-3H-imidazo[4,5-b]pyridin-3-yl)benzyl)piperidin-4-yl)amino)pyrimidine-2-carbonitrile]: the IC50 was less than 0.015 µM.

As for `Cn1ccc(-c2ccc3nc(-c4cccnc4N)n(-c4ccc(CN5CCC(Nc6nccc(C#N)n6)CC5)cc4)c3n2)cc1=O` [Example 360, 2-((1-(4-(2-(2-Aminopyridin-3-yl)-5-(1-methyl-2-oxo-1,2-dihydropyridin-4-yl)-3H-imidazo[4,5-b]pyridin-3-yl)benzyl)piperidin-4-yl)amino)pyrimidine-4-carbonitrile], the IC50 fell in the range of 0.06 to 0.6 µM.

Staying with this experiment, now noted: competitive tracer displacement in living cells, read-out: AKT1 E17K IC50.
With `N#Cc1cc(C(=O)N2CCN(Cc3ccc(-n4c(-c5cccnc5N)nc5ccc(-c6ccccc6)nc54)cc3)CC2)ncn1` [Example 116, 6-(4-(4-(2-(2-Aminopyridin-3-yl)-5-phenyl-3H-imidazo[4,5-b]pyridin-3-yl)benzyl)piperazine-1-carbonyl)pyrimidine-4-carbonitrile], the IC50 was less than 0.015 µM.

On to `N#Cc1cc(NC2CCN(Cc3ccc(-n4c(-c5cccnc5N)nc5ccc(N6CCOCC6)nc54)cc3)CC2)ncn1` [Example 241, 6-((1-(4-(2-(2-Aminopyridin-3-yl)-5-morpholino-3H-imidazo[4,5-b]pyridin-3-yl)benzyl)piperidin-4-yl)amino)pyrimidine-4-carbonitrile], for which the IC50 was 0.015 to 0.06 µM.

Turning to `N#Cc1cc(C(=O)NC2CCN(Cc3ccc(-n4c(-c5cccnc5N)nc5cccnc54)cc3)CC2)ncn1` [Example 33, N-(1-(4-(2-(2-Aminopyridin-3-yl)-3H-imidazo[4,5-b]pyridin-3-yl)benzyl)piperidin-4-yl)-6-cyanopyrimidine-4-carboxamide], the IC50 was 0.6 to 10 µM.

As to `N#Cc1ncnc(N2CCN(Cc3ccc(-n4c(-c5cccnc5N)nc5ccc(-c6ccccc6Cl)nc54)cc3)CC2)n1` [Example 304, 4-(4-(4-(2-(2-Aminopyridin-3-yl)-5-(2-chlorophenyl)-3H-imidazo[4,5-b]pyridin-3-yl)benzyl)piperazin-1-yl)-1,3,5-triazine-2-carbonitrile], the IC50 is less than 0.015 µM.

Consider `N#Cc1cc(C(=O)N2CCN(Cc3ccc(-n4c(-c5cccnc5N)nc5cccnc54)cc3)CC2)ccn1` [Example 109, 4-(4-(4-(2-(2-Aminopyridin-3-yl)-3H-imidazo[4,5-b]pyridin-3-yl)benzyl)piperazine-1-carbonyl)picolinonitrile], for which the IC50 lay in the range of 0.6 to 10 µM.

For the compound `N#Cc1cncc(NC2CCN(Cc3ccc(-n4c(-c5cccnc5N)nc5cccnc54)cc3)CC2)c1` [Example 74, 5-((1-(4-(2-(2-Aminopyridin-3-yl)-3H-imidazo[4,5-b]pyridin-3-yl)benzyl)piperidin-4-yl)amino)nicotinonitrile], the IC50 fell in the range of 0.6 to 10 µM.

On to `N#Cc1ccc(C(=O)NC2CCN(Cc3ccc(-n4c(-c5cccnc5N)nc5ccc(-c6ccccc6)nc54)cc3)CC2)cn1` [Example 167, N-(1-(4-(2-(2-Aminopyridin-3-yl)-5-phenyl-3H-imidazo[4,5-b]pyridin-3-yl)benzyl)piperidin-4-yl)-6-cyanonicotinamide], for which the IC50 was in the range of 0.06 to 0.6 µM.

With `N#Cc1ccnc(N2CCN(Cc3ccc(-n4c(-c5cccnc5N)nc5cccnc54)cc3)CC2)n1` [Example 20, 2-(4-(4-(2-(2-aminopyridin-3-yl)-3H-imidazo[4,5-b]pyridin-3-yl)benzyl)piperazin-1-yl)pyrimidine-4-carbonitrile], the IC50 fell in the range of 0.6 to 10 µM.

With `N#Cc1ccc(C(=O)NC2CCN(Cc3ccc(-n4c(-c5cccnc5N)nc5cccnc54)cc3)CC2)cn1` [Example 24, N-(1-(4-(2-(2-Aminopyridin-3-yl)-3H-imidazo[4,5-b]pyridin-3-yl)benzyl)piperidin-4-yl)-6-cyanonicotinamide], the IC50 was 0.6 to 10 µM.

Regarding `N#Cc1cc(NCc2ccc(-n3c(-c4cccnc4N)nc4cccnc43)cc2)ccn1` [Example 127, 4-((4-(2-(2-Aminopyridin-3-yl)-3H-imidazo[4,5-b]pyridin-3-yl)benzyl)amino)picolinonitrile], the IC50 fell in the range of 0.6 to 10 µM.

For the compound `C[C@H]1CN(Cc2ccc(-n3c(-c4cccnc4N)nc4ccc(-c5ccccc5)nc43)cc2)CCN1c1cc(C#N)ncn1` [Example 208, (S)-6-(4-(4-(2-(2-Aminopyridin-3-yl)-5-phenyl-3H-imidazo[4,5-b]pyridin-3-yl)benzyl)-2-methylpiperazin-1-yl)pyrimidine-4-carbonitrile], the IC50 was 0.06 to 0.6 µM.

Take `N#Cc1ccc(N2CCN(Cc3ccc(-n4c(-c5cccnc5N)nc5ccc(-c6ccccc6)nc54)cc3)CC2)cn1` [Example 94, 5-(4-(4-(2-(2-Aminopyridin-3-yl)-5-phenyl-3H-imidazo[4,5-b]pyridin-3-yl)benzyl)piperazin-1-yl)picolinonitrile]: the IC50 lay within 0.06 to 0.6 µM.

For `N#Cc1ccc(C(=O)N2CCN(Cc3ccc(-n4c(-c5cccnc5N)nc5ccc(-c6ccccc6)nc54)cc3)CC2)nc1` [Example 142, 6-(4-(4-(2-(2-Aminopyridin-3-yl)-5-phenyl-3H-imidazo[4,5-b]pyridin-3-yl)benzyl)piperazine-1-carbonyl)nicotinonitrile], the IC50 lay within 0.6 to 10 µM.

Take `N#Cc1nc2cc(F)cc(C(=O)N3CCN(Cc4ccc(-n5c(-c6cccnc6N)nc6ccc(-c7ccccc7)nc65)cc4)CC3)c2s1` [Example 180, 7-(4-(4-(2-(2-Aminopyridin-3-yl)-5-phenyl-3H-imidazo[4,5-b]pyridin-3-yl)benzyl)piperazine-1-carbonyl)-5-fluorobenzo[d]thiazole-2-carbonitrile]: the IC50 was 0.015 to 0.06 µM.

Turning to `N#Cc1cccc(C(=O)NCc2ccc(-n3c(-c4cccnc4N)nc4cccnc43)cc2)n1` [Example 108, N-(4-(2-(2-Aminopyridin-3-yl)-3H-imidazo[4,5-b]pyridin-3-yl)benzyl)-6-cyanopicolinamide], the IC50 was in the range of 0.6 to 10 µM.

As a reminder, the IC50 is the concentration that gives 50% inhibition.
